Assay results reported in PubChem BioAssay (NCI).
Several values for one entry are separate records, joined by “and”; a condition that tells them apart may be missing. Equal entries are not always repeated.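 Tested at 5 concentrations; 48 h exposure; 96-well plates; endpoints linearly interpolated, else capped at highest concentration. Abbreviation: GI50, concentration required for 50% inhibition of growth. TGI: concentration producing complete growth inhibition.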

What was measured:
Experiment in all cases: growth of human tumour cells (NCI), 48 h
UACC-257 melanoma = system: UACC-257 melanoma
MOLT-4 leukemia = system: MOLT-4 leukemia
COLO 205 colon = system: COLO 205 colon
HCC-2998 colon = system: HCC-2998 colon
EKVX NSCLC = system: EKVX NSCLC
SF-539 CNS = system: SF-539 CNS
NCI-H460 lung = system: NCI-H460 lung
OVCAR-8 ovarian = system: OVCAR-8 ovarian
A498 renal = system: A498 renal
HS 578T breast = system: HS 578T breast

SMILES	GI50 (UACC-257 melanoma) [µM]	TGI (UACC-257 melanoma)	GI50 (MOLT-4 leukemia) [µM]	TGI (MOLT-4 leukemia)	GI50 (COLO 205 colon) [µM]	TGI (COLO 205 colon)	GI50 (HCC-2998 colon) [µM]	TGI (HCC-2998 colon) [µM]	GI50 (EKVX NSCLC) [µM]	TGI (EKVX NSCLC)	GI50 (SF-539 CNS) [µM]	TGI (SF-539 CNS)	GI50 (NCI-H460 lung) [µM]	TGI (NCI-H460 lung) [µM]	GI50 (OVCAR-8 ovarian) [µM]	TGI (OVCAR-8 ovarian) [µM]	GI50 (A498 renal) [µM]	TGI (A498 renal) [µM]	GI50 (HS 578T breast) [µM]	TGI (HS 578T breast) [µM]
COc1ccc2nc3cc(Cl)ccc3c(Nc3ccc(O)c(CN4CCCC4)c3)c2c1	2.15	3.83 µM	2.43	11.4 µM	1.83	3.48 µM	1.67	3.16	3.18	14.4 µM	1.87	3.49 µM	2.46	6.15	2.01	4.87	2.89	12.2	–	–
BrC(Br)([P+](c1ccccc1)(c1ccccc1)c1ccccc1)[P+](c1ccccc1)(c1ccccc1)c1ccccc1	–	50.5 µM	–	61.8 µM	–	29.9 µM	–	31.8	–	63 µM	–	27.8 µM	–	> 100	–	26.4	–	48	–	–
Cc1ccc(-c2cc(C(Cl)Cl)on2)cc1	67.7	> 100 µM	26.8	> 100 µM	35.4	> 100 µM	–	–	46.1	> 100 µM	> 100	> 100 µM	49.1	> 100	> 100	> 100	42.7	> 100	> 100	> 100
CC(C)(C)c1cc(C(=O)O)c(C(c2ccccc2)c2ccccc2C(=O)O)c(C(=O)O)c1 (centres undefined)	–	> 100 µM	–	> 100 µM	–	> 100 µM	–	–	–	> 100 µM	–	> 100 µM	–	> 100	–	> 100	–	–	–	–
O=C(NOC(=O)c1ccc([N+](=O)[O-])cc1)c1ccc(Cl)cc1	–	> 100 µM	–	> 100 µM	–	> 100 µM	–	> 100	–	> 100 µM	–	> 100 µM	–	> 100	–	> 100	–	> 100	–	–
COc1ccc(C2NC(=S)NC3=C2COc2ccc(F)cc23)cc1OC (centres undefined)	14.2	45.4 µM	54.6	> 100 µM	36.2	> 100 µM	–	–	29.8	> 100 µM	28.3	67.4 µM	24.1	> 100	19.4	60.9	13.4	36.1	7.75	38.1
CN1C=C(C(N)=O)C2CC(O)[C@@](NC(=O)CS(N)(=O)=O)(C(=O)O)C2C1 (some centres undefined)	–	27 µM	–	31.6 µM	–	29.2 µM	–	34	–	> 42.6 µM	–	4.41 µM	–	12.6	–	18.2	–	4.96	–	–
COC(=O)Cc1cc(=O)oc2c1C(=O)CCC2	–	> 100 µM	–	> 100 µM	–	> 100 µM	–	> 100	–	> 100 µM	–	> 100 µM	–	> 100	–	> 100	–	> 100	–	–
O=c1c2ccccc2c(=O)c2c1sc1c(=O)c3ccc(O)cc3c(=O)c12	0.28	0.736 µM	2.17	8.07 µM	–	–	–	–	1.34	3.66 µM	0.245	0.661 µM	–	–	1.78	8.31	0.574	1.72	0.33	0.973
CN1C(=O)CC2(C)c3cc(C=O)ccc3N(C)C12 (centres undefined)	–	> 100 µM	–	> 100 µM	–	> 100 µM	–	> 100	–	> 100 µM	–	> 100 µM	–	> 100	–	> 100	–	> 100	–	–
COC(=O)C1=C(C(=O)OC)N(C(C)C)[C@H]2C(C(=O)OC)=C(C(=O)OC)N(C(C)C)[C@@H]12	–	> 100 µM	–	> 100 µM	–	> 100 µM	–	–	–	> 100 µM	–	> 100 µM	–	> 100	–	> 100	–	> 100	–	–
O=C1Cc2ccccc2CCc2ccccc21	–	> 100 µM	–	> 100 µM	–	> 100 µM	–	> 100	–	> 100 µM	–	> 100 µM	–	> 100	–	> 100	–	> 100	–	–
CCCC/C=C1\CCC(CN2CCCC2)C1=O (centres undefined)	–	32.8 µM	–	36.2 µM	–	26.1 µM	–	33.7	–	–	–	29.8 µM	–	38.2	–	28.5	–	28.2	–	–
C(/C=C/N1CCCC1)=C\c1nc(N2CCCC2)c2ccccc2n1	–	> 100 µM	–	52.3 µM	–	28.5 µM	–	31.3	–	37.9 µM	–	32.8 µM	–	33.6	–	> 100	–	> 100	–	–
CCOC(=O)c1cc(C(=O)O)c(=O)n2c1[nH]c1ccccc12	–	> 100 µM	–	> 100 µM	–	> 100 µM	–	> 100	–	> 100 µM	–	> 100 µM	–	> 100	–	> 100	–	> 100	–	–
C=C1C(=O)C23CC1CCC2C12CO[C@@]3(O)[C@@H](O)C1C(C)(C)C=CC2=O (some centres undefined)	2.49	1.33 µM and 7.8 µM	2.6	2.15 µM and 9.87 µM	3.18	1.86 µM and 10.1 µM	20.7	–	18.7	11.8 µM and 34.7 µM	4.43	1.8 µM and 13.4 µM	14.7	–	3.37	–	–	–	–	81.6
Cc1ccc(NCCNCC(O)CO)c2c(=O)c3ccccc3sc12 (centres undefined)	1.87	3.58 µM	–	–	1.32	3.02 µM	1.48	3.05	1.83	3.77 µM	1.67	3.19 µM	0.776	2.43	1.92	4.77	–	–	2.19	5.9
COc1cc2c3c(c1OC)/C(=N/OS(=O)(=O)c1ccc(C)cc1)CC3N(S(=O)(=O)c1ccc(C)cc1)CC2 (centres undefined)	–	> 100 µM	–	–	–	> 100 µM	–	> 100	–	> 100 µM	–	> 100 µM	–	> 100	–	> 100	–	> 100	–	–
c1cc2ccc1C1NCCCN1CCN1CCCNC1c1ccc(cc1)C1NCCCN1CCN1CCCNC21 (centres undefined)	–	> 100 µM	–	> 100 µM	–	> 100 µM	–	–	–	> 100 µM	–	> 100 µM	–	> 100	–	> 100	–	> 100	–	–
